Results published in ChEMBL document CHEMBL1177820, “Diazinones as P2 replacements for pyrazole-based cathepsin S inhibitors” (Bioorg Med Chem Lett, 2010).

Columns and labels:
[1] = Apparent permeability from apical to basolateral side in […] TC7 cells; type: ADME, cell-based; settings: Caco-2
[2] = Apparent permeability from basolateral to apical side in […] TC7 cells; type: ADME, cell-based; settings: Caco-2

Structure (SMILES) | Papp A→B [1] | Papp B→A [2]
Cn1c(=O)n(C2CCN(CCCn3nccc(-c4ccc(Cl)c(CNC(=O)c5ccc(F)cc5)c4)c3=O)CC2)c2cc(Cl)ccc21 | 1.3 ×10⁻⁶ cm/s | 1.5 ×10⁻⁶ cm/s
Cn1c(=O)n(C2CCN(CCCn3cncc(-c4ccc(Cl)c(CNC(=O)c5ccc(F)cc5)c4)c3=O)CC2)c2cc(Cl)ccc21 | 2.5 ×10⁻⁶ cm/s | 2.9 ×10⁻⁶ cm/s
Cn1c(=O)n(C2CCN(CCCn3ccnc(-c4ccc(Cl)c(CNC(=O)c5ccc(F)cc5)c4)c3=O)CC2)c2cc(Cl)ccc21 | 0.6 ×10⁻⁶ cm/s | 3.7 ×10⁻⁶ cm/s
